Laboratory results published in the supplement of paper PMC11061612.

Legend:
AZD1775 = compound: C=CCn1c(=O)c2cnc(Nc3ccc(N4CCN(C)CC4)cc3)nc2n1-c1cccc(C(C)(C)O)n1 [AZD1775]
In short: (§1)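 Cancer cell lines were plated in 1536-well plates in 7.5 μl of DMEM/F12 or RPMI with 10% FBS and kept 24 hours at 37°C and 5% CO2 before 72 hours of dosing, with final DMSO typically 0.2%. CellTiter-Glo 2.0 luminescence measured viability, scaled between blank-well and DMSO-well means. Dose responses were fitted to a two-parameter logistic curve with a non-linear mixed effects model. This fit gives the single-agent IC50.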

Lapatinib = compound: CS(=O)(=O)CCNCc1ccc(-c2ccc3ncnc(Nc4ccc(OCc5cccc(F)c5)c(Cl)c4)c3c2)o1 [Lapatinib]; conditions: max 10 µM
In short: as §1

Alisertib = compound: COc1cc(Nc2ncc3c(n2)-c2ccc(Cl)cc2C(c2c(F)cccc2OC)=NC3)ccc1C(=O)O [Alisertib]; conditions: max 10 µM
In short: as §1

Gefitinib = compound: COc1cc2ncnc(Nc3ccc(F)c(Cl)c3)c2cc1OCCCN1CCOCC1 [Gefitinib]; conditions: max 10 µM
In short: as §1

Venetoclax = compound: CC1(C)CCC(CN2CCN(c3ccc(C(=O)NS(=O)(=O)c4ccc(NCC5CCOCC5)c([N+](=O)[O-])c4)c(Oc4cnc5[nH]ccc5c4)c3)CC2)=C(c2ccc(Cl)cc2)C1 [Venetoclax]; conditions: max 1 µM
In short: as §1

Doxorubicin = compound: COc1cccc2c1C(=O)c1c(O)c3c(c(O)c1C2=O)C[C@@](O)(C(=O)CO)C[C@@H]3O[C@H]1C[C@H](N)[C@H](O)[C@H](C)O1 [Doxorubicin]; conditions: max 1 µM
In short: as §1

AZD1390 = compound: CC(C)n1c(=O)n(C)c2cnc3cc(F)c(-c4ccc(OCCCN5CCCCC5)nc4)cc3c21 [AZD1390]; conditions: max 0.3 µM
In short: as §1

Olaparib = compound: O=C(c1cc(Cc2n[nH]c(=O)c3ccccc23)ccc1F)N1CCN(C(=O)C2CC2)CC1 [Olaparib]
In short: as §1

Trametinib = compound: CC(=O)Nc1cccc(-n2c(=O)n(C3CC3)c(=O)c3c(Nc4ccc(I)cc4F)n(C)c(=O)c(C)c32)c1 [Trametinib]; conditions: max 1 µM
In short: as §1

Capivasertib = compound: C1CN(CCC1(C(=O)N[C@@H](CCO)C2=CC=C(C=C2)Cl)N)C3=NC=NC4=C3C=CN4 [Capivasertib]
In short: as §1

AZD6738 = compound: C[C@@H]1COCCN1C2=NC(=NC(=C2)C3(CC3)[S@](=N)(=O)C)C4=C5C=CNC5=NC=C4 [AZD6738]; conditions: max 10 µM
In short: as §1

AZD7648 = compound: Cc1cc2ncnn2cc1Nc1ncc2c(n1)n(C1CCOCC1)c(=O)n2C [AZD7648]; conditions: max 10 µM
In short: as §1

SN-38 = compound: CCc1c2c(nc3ccc(O)cc13)-c1cc3c(c(=O)n1C2)COC(=O)[C@]3(O)CC [SN-38]; conditions: max 0.3 µM
In short: as §1

Prexasertib = compound: COc1cccc(OCCCN)c1-c1cc(Nc2cnc(C#N)cn2)n[nH]1 [Prexasertib]; conditions: max 1 µM
In short: as §1

AZD0156 = compound: CN(C)CCCOc1ccc(-c2ccc3ncc4c(c3c2)n(C2CCOCC2)c(=O)n4C)cn1 [AZD0156]
In short: as §1

AZD5991 = compound: Cc1c2c(nn1C)CSCc1cc(n(C)n1)CSc1cc(c3ccccc3c1)OCCCc1c(C(=O)O)n(C)c3c-2c(Cl)ccc13 [AZD5991]; conditions: max 1 µM
In short: as §1

SG3199 = compound: CC1=CN2[C@@H](C1)C=NC3=CC(=C(C=C3C2=O)OC)OCCCCCOC4=C(C=C5C(=C4)N=C[C@@H]6CC(=CN6C5=O)C)OC [SG3199]; conditions: max 0.001 µM
In short: as §1

Crizotinib = compound: C[C@@H](Oc1cc(-c2cnn(C3CCNCC3)c2)cnc1N)c1c(Cl)ccc(F)c1Cl [Crizotinib]; conditions: max 10 µM
In short: as §1

Dasatinib = compound: CC1=C(C(=CC=C1)Cl)NC(=O)C2=CN=C(S2)NC3=CC(=NC(=N3)C)N4CCN(CC4)CCO [Dasatinib]; conditions: max 2 µM
In short: as §1

Palbociclib = compound: CC(=O)c1c(C)c2cnc(Nc3ccc(N4CCNCC4)cn3)nc2n(C2CCCC2)c1=O [Palbociclib]; conditions: max 10 µM
In short: as §1

AZD4320 = compound: CN(CC[C@H](CSC1=CC=CC=C1)NC2=C(C=C(C=C2)S(=O)(=O)NC(=O)C3=CC=C(C=C3)N4CCC(CC4)[C@H](C5=CC=CC=C5C6=CC=C(C=C6)Cl)O)S(=O)(=O)C(F)(F)F)CCO [AZD4320]; conditions: max 1 µM
In short: as §1

AZD2811 = compound: CCN(CCO)CCCOc1ccc2c(Nc3cc(CC(=O)Nc4cccc(F)c4)[nH]n3)ncnc2c1 [AZD2811]; conditions: max 1 µM
In short: as §1

AZD8186 = compound: C[C@@H](Nc1cc(F)cc(F)c1)c1cc(C(=O)N(C)C)cc2c(=O)cc(N3CCOCC3)oc12 [AZD8186]; conditions: max 3 µM
In short: as §1

AZD5153 = compound: COc1nnc2ccc(N3CCC(c4ccc(OCCN5CCN(C)C(=O)[C@H]5C)cc4)CC3)nn12 [AZD5153]; conditions: max 1 µM
In short: as §1

Taselisib = compound: Cc1nc(-c2cn3c(n2)-c2ccc(-c4cnn(C(C)(C)C(N)=O)c4)cc2OCC3)n(C(C)C)n1 [Taselisib]; conditions: max 10 µM
In short: as §1

Savolitinib = compound: C[C@@H](c1ccc2nccn2c1)n1nnc2ncc(-c3cnn(C)c3)nc21 [Savolitinib]; conditions: max 1 µM
In short: as §1

Selumetinib = compound: Cn1cnc2c(F)c(Nc3ccc(Br)cc3Cl)c(C(=O)NOCCO)cc21 [Selumetinib]
In short: as §1

Row | Cell Line | IC50, cell viability 72 h (AZD1775; max 3 µM) | IC50, cell viability 72 h (Lapatinib) | IC50, cell viability 72 h (Alisertib) | IC50, cell viability 72 h (Gefitinib) | IC50, cell viability 72 h (Venetoclax) | IC50, cell viability 72 h (Doxorubicin) | IC50, cell viability 72 h (AZD1390) | IC50, cell viability 72 h (Olaparib; max 10 µM) | IC50, cell viability 72 h (Trametinib) | IC50, cell viability 72 h (Capivasertib; max 10 µM) | IC50, cell viability 72 h (AZD6738) | IC50, cell viability 72 h (AZD7648) | IC50, cell viability 72 h (SN-38) | IC50, cell viability 72 h (Prexasertib) | IC50, cell viability 72 h (AZD0156; max 3 µM) | IC50, cell viability 72 h (AZD5991) | IC50, cell viability 72 h (SG3199) | IC50, cell viability 72 h (Crizotinib) | IC50, cell viability 72 h (Dasatinib) | IC50, cell viability 72 h (Palbociclib) | IC50, cell viability 72 h (AZD4320) | IC50, cell viability 72 h (AZD2811) | IC50, cell viability 72 h (AZD8186) | IC50, cell viability 72 h (AZD5153) | IC50, cell viability 72 h (Taselisib) | IC50, cell viability 72 h (Savolitinib) | IC50, cell viability 72 h (Selumetinib; max 10 µM) | IC50, cell viability 72 h (Olaparib; max 3 µM) | IC50, cell viability 72 h (Capivasertib; max 3 µM) | IC50, cell viability 72 h (AZD1775; max 1 µM) | IC50, cell viability 72 h (AZD0156; max 1 µM) | IC50, cell viability 72 h (Selumetinib; max 3 µM)
1 | HT-1197 (Bladder Carcinoma) | 2150 nM | > 10000 nM | > 10000 nM | > 10000 nM | > 1000 nM | > 1000 nM | > 300 nM | > 10000 nM | > 1000 nM | > 10000 nM | > 10000 nM | > 10000 nM | > 300 nM | > 1000 nM | > 3000 nM | > 1000 nM | > 1 nM | > 10000 nM | > 2000 nM | > 10000 nM | > 1000 nM | > 1000 nM | > 3000 nM | 697 nM | 2890 nM | > 1000 nM | > 10000 nM |  |  |  |  | 
2 | IGROV-1 (Ovarian Carcinoma) | 191 nM | 764 nM | 1630 nM | 1550 nM | > 1000 nM | 924 nM | > 300 nM | > 10000 nM | 19.6 nM | 438 nM | 2900 nM | > 10000 nM | 177 nM | 54 nM | > 3000 nM | > 1000 nM | > 1 nM | 9830 nM | 16.9 nM | 5560 nM | > 1000 nM | > 1000 nM | 1320 nM | 390 nM | 17.2 nM | > 1000 nM | 1070 nM |  |  |  |  | 
3 | JURL-MK1 (Chronic Myelogenous Leukemia) | 85.1 nM | > 10000 nM | 297 nM | > 10000 nM | > 1000 nM | 115 nM | > 300 nM | > 10000 nM | 5.76 nM | > 10000 nM | 228 nM | > 10000 nM | 9.8 nM | 2.55 nM | > 3000 nM | 778 nM | > 1 nM | 320 nM | < 2 nM | 248 nM | 322 nM | > 1000 nM | > 3000 nM | 61.3 nM | > 10000 nM | > 1000 nM | 339 nM |  |  |  |  | 
4 | M14 (Melanoma) | 624 nM |  |  |  |  |  |  |  |  |  |  |  |  |  | > 3000 nM |  |  |  |  |  |  |  |  |  |  |  |  | > 3000 nM | > 3000 nM |  |  | 
5 | NCI-H1048 (Small Cell Lung Carcinoma) | 798 nM | > 10000 nM | 497 nM | > 10000 nM | > 1000 nM | 261 nM | > 300 nM | > 10000 nM | > 1000 nM | 9210 nM | > 10000 nM | > 10000 nM | 2.99 nM | 132 nM | > 3000 nM |  | > 1 nM | > 10000 nM | > 2000 nM | > 10000 nM | 505 nM | 323 nM | > 3000 nM | > 1000 nM | 348 nM | > 1000 nM | > 10000 nM |  |  |  |  | 
6 | NCI-H1975 (Lung Adenocarcinoma) | 1620 nM | > 10000 nM | > 10000 nM | > 10000 nM | > 1000 nM | 497 nM | > 300 nM | > 10000 nM | > 1000 nM | 3840 nM | > 10000 nM | > 10000 nM | > 300 nM | > 1000 nM | > 3000 nM | > 1000 nM | > 1 nM | > 10000 nM | 1010 nM | > 10000 nM | > 1000 nM | > 1000 nM | > 3000 nM | 359 nM | 1220 nM | > 1000 nM | > 10000 nM |  |  |  |  | 
7 | NCI-H2170 (Squamous Cell Lung Carcinoma) | 678 nM | 362 nM | 1100 nM | 1980 nM | > 1000 nM | 539 nM | > 300 nM | > 10000 nM | > 1000 nM | 5470 nM | 7670 nM | > 10000 nM | 13.6 nM | 46.8 nM | > 3000 nM | > 1000 nM | > 1 nM | 7380 nM | > 2000 nM | > 10000 nM | 665 nM | 391 nM | > 3000 nM | > 1000 nM | 1540 nM | > 1000 nM | > 10000 nM |  |  |  |  | 
8 | RVH-421 (Melanoma) |  |  | > 10000 nM |  | > 1000 nM | > 1000 nM |  | > 10000 nM | > 1000 nM |  | > 10000 nM | > 10000 nM | > 300 nM | > 1000 nM |  | > 1000 nM | > 1 nM |  |  |  | > 1000 nM | > 1000 nM | 3000 nM |  | > 10000 nM |  |  |  | > 3000 nM | > 1000 nM | > 1000 nM | > 3000 nM
9 | TK (B-Cell Non-Hodgkin's Lymphoma) | 293 nM | > 10000 nM | 2790 nM | > 10000 nM | 46.2 nM | > 1000 nM | > 300 nM | > 10000 nM | > 1000 nM | > 10000 nM | 1020 nM | > 10000 nM | 16.7 nM | 10.8 nM | > 3000 nM | > 1000 nM | > 1 nM | > 10000 nM | > 2000 nM | > 10000 nM |  | > 1000 nM | > 3000 nM | > 1000 nM | > 10000 nM | > 1000 nM | > 10000 nM |  |  |  |  | 
